Tested on: mouse islets
Assay: LDH leakage cytotoxicity of mouse islets cultured in the presence of neutrophil elastase
Format: cell-based
Conditions: FIG. 3
Protocol: The concentration of the neutrophil elastase inhibitor used in the isolation method of the present invention was examined as follows using the extracellular leakage of LDH (lactate dehydrogenase) (indicator for cytotoxicity) as an indicator.
First, mouse islets were cultured in the presence of neutrophil elastase at a concentration of 0.31 to 10 μg/mL and the supernatant was collected after a lapse of a certain time. Subsequently, the remaining mouse islets were homogenized and the islet suspension was collected. LDH contained in the collected supernatant and the islet suspension was measured by using a LDH assay kit to measure absorbance at 562 nm. The optimal concentration of the neutrophil elastase inhibitor was examined by adding 2 to 200 μM of the neutrophil elastase inhibitor, sivelestat, in culturing mouse islets in the presence of various concentrations of neutrophil elastase, and similarly measuring the amount of LDH. The cytotoxicity was expressed as the percentage (%) of the amount of LDH contained in the supernatant in the sum of the amount of LDH contained in the supernatant and the amount of LDH contained in the islet suspension.

CC(C)(C)C(=O)Oc1ccc(S(=O)(=O)Nc2ccccc2C(=O)NCC(=O)O)cc1 [sivelestat]
optimal concentration of the neutrophil elastase inhibitor (from suppression of LDH leakage among 2, 20, 200 μM): 20 µM | damage of islet cells (cytotoxicity, LDH in supernatant as % of total LDH) (mouse islets with neutrophil elastase 0.31 to 10 μg/mL, 2, 20 or 200 μM sivelestat compared, result at 20 μM): most suppressed
